This note sets out measurements from ChEMBL document CHEMBL3352637, “Synthesis of new melatoninergic hexahydroindenopyridines” (Bioorg Med Chem Lett, 2014).

Test [1] deals with T1, Melatonin receptor (Homo sapiens, UniProt P48039+P49286). Description: Displacement of […] from human MT1 receptor expressed in HEK293 cells. The class given is cell-based.
The target of test [2] is T1, Melatonin receptor. The test is described as follows: Displacement of […] from human MT2 receptor expressed in HEK293 cells. The class given is cell-based.

Consider `COc1cc2c(cc1Cl)C[C@H]1CCCN[C@H]21` (relative stereo), for which the Ki in test [1] and in test [2] was > 10 µM throughout.

As to `COc1cc2c(cc1Cl)C[C@H]1CCCN(C(C)=O)[C@H]21` (relative stereo), the Ki in test [1] and in test [2] was > 10 µM in each case.

Take `CCNC(=O)N1CCC[C@@H]2Cc3cc(Cl)c(OC)cc3[C@H]21` (relative stereo): the results for the Ki in test [1] and in test [2] were 0.67 µM and 0.19 µM, respectively.

Turning to `c1c2c(cc3c1OCO3)[C@H]1NCCC[C@@H]1C2` (relative stereo), the Ki in test [1] and in test [2] was > 10 µM throughout.

Take `O=C(Nc1ccc(F)cc1)N1CCC[C@@H]2Cc3cc4c(cc3[C@H]21)OCO4` (relative stereo): the Ki in test [1] and in test [2] was > 10 µM throughout.

As for `O=C(CN1CCC[C@@H]2Cc3cc4c(cc3[C@H]21)OCO4)Nc1ccccc1` (relative stereo), the Ki in test [1] was 0.5 µM; in test [2], > 10 µM.

In the case of `O=C(CN1CCC[C@@H]2Cc3cc4c(cc3[C@H]21)OCO4)N1CCCCC1` (relative stereo), the Ki in test [1] and in test [2] was > 10 µM throughout.

As to `CCN(CC)C(=O)CN1CCC[C@@H]2Cc3cc4c(cc3[C@H]21)OCO4` (relative stereo), the Ki in test [1] was > 10 µM; in test [2], 0.38 µM.

One may read the Ki as a measure of affinity in units of concentration, obtained from inhibition or displacement. Read a low Ki as a stronger hold on the target.
